Source: ChEMBL document CHEMBL3879914, “Inhibitors of central nervous system vasoactive inhibitory peptide receptor 2” (2014)
Calls of active or inactive are those of the source. The calls are words filed in the database; no cut-off is given here.

Legend:
[1] = molecular target: T1, Vasoactive intestinal polypeptide receptor 2 (Homo sapiens, UniProt P41587); assay: (§1) Antagonist activity at recombinant human N-terminal signal peptide/FLAG epitope-tagged Rluc8-fused VIPR2 expressed in HEK293 cells assessed as inhibition of VIP-induced human mVenus-beta-arrestin2 binding preincubated for 5 mins with luciferin, coelenterazine H followed by VIP addition measured after 5 mins by BRET assay; assay type: cell-based
T1 sequence (P41587 whole entry): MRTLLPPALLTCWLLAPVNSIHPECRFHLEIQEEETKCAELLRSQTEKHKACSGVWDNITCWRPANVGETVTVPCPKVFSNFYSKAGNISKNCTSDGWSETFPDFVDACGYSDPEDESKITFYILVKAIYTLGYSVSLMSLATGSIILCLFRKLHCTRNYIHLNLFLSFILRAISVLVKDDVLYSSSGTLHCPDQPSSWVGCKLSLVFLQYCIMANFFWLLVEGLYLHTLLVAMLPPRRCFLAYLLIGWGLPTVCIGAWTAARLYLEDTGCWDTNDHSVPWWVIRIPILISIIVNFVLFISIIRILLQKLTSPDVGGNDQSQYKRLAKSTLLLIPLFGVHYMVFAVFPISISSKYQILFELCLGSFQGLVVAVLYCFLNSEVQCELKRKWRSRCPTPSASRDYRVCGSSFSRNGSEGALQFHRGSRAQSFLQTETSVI

[2] = molecular target: T2, Vasoactive intestinal polypeptide receptor 2 (Homo sapiens) (UniProt P41587); assay: as §1, with “binding at 0.5 uM” for “binding”, “assay relative to control” for “assay”; assay type: cell-based
T2 sequence (whole entry): T1 sequence (P41587 whole entry)

[3] = molecular target: T2, Vasoactive intestinal polypeptide receptor 2 (Homo sapiens); assay: (§2) Antagonist activity at recombinant human N-terminal signal peptide/FLAG epitope-tagged VIPR2 expressed in HEK293 cells co-expressing CAMYEL assessed as inhibition of VIP-induced cAMP accumulation at 1 uM preincubated for 5 mins with luciferin, coelenterazine H followed by VIP addition measured after 5 mins by BRET assay relative to control; assay type: functional, cell-based
[4] = molecular target: T2, Vasoactive intestinal polypeptide receptor 2 (Homo sapiens); assay: as §1, with “binding at 1 uM” for “binding”, “assay relative to control” for “assay”; assay type: cell-based
[5] = molecular target: T2, Vasoactive intestinal polypeptide receptor 2 (Homo sapiens); assay: as §2, with “0.5” for “1”; assay type: functional, cell-based
[6] = molecular target: T2, Vasoactive intestinal polypeptide receptor 2 (Homo sapiens); assay: as §1, with “binding at 5 uM” for “binding”, “assay relative to control” for “assay”; assay type: cell-based
[7] = molecular target: T2, Vasoactive intestinal polypeptide receptor 2 (Homo sapiens); assay: as §2, with “5” for “1”; assay type: functional, cell-based
[8] = molecular target: T1, Vasoactive intestinal polypeptide receptor 2; assay: Antagonist activity at human VIPR2 expressed in HEK293 cells assessed as inhibition of VIP-induced cAMP accumulation incubated for 30 mins by HTRF assay; assay type: functional, cell-based
[9] = molecular target: T1, Vasoactive intestinal polypeptide receptor 2; assay: Antagonist activity at human VIPR2 expressed in HEK293 cells assessed as inhibition of VIP-induced beta-arrestin 2 binding incubated for 2 hrs by beta-galactosidase assay; assay type: cell-based
[10] = molecular target: T2, Vasoactive intestinal polypeptide receptor 2 (Homo sapiens); assay: as §2, with “[…]” for “HEK293”, “accumulation” for “accumulation at 1 uM”, “assay” for “assay relative to control”; assay type: functional, cell-based

SMILES	IC50 [1]	inhibition [2]	inhibition [3]	inhibition [4]	inhibition [5]	inhibition [6]	inhibition [7]	IC50 [8]	IC50 [9]	inhibition [10]
O=C(N[C@H]1c2ccccc2C[C@H]1O)[C@H](Cc1ccccc1)C[C@H](O)CNS(=O)(=O)c1ccc2c(c1)OCCO2	0.206 to 33.7 µM	–	–	–	–	–	–	–	–	–
CO[C@@H]1Cc2ccccc2[C@@H]1NC(=O)[C@H](Cc1ccccc1)C[C@H](O)CNS(=O)(=O)c1ccc(Cl)cc1	4 µM	13.3%	–	–	–	–	–	–	–	–
Cc1ccc(S(=O)(=O)NC[C@@H](O)C[C@@H](Cc2ccccc2)C(=O)N[C@H]2c3ccccc3C[C@H]2O)cc1	1.18 to 1.98 µM	62.3 to 94.1%	63.5%	80.4%	42.2%	90%	98.2%	–	–	–
O=C(N[C@H]1c2ccccc2C[C@H]1O)[C@H](Cc1ccccc1)C[C@H](O)CNS(=O)(=O)c1ccc(Cl)cc1	0.28 to 2.02 µM	–	–	–	–	–	–	–	–	–
CC(=O)c1ccc(S(=O)(=O)NC[C@@H](O)C[C@@H](Cc2ccccc2)C(=O)N[C@H]2c3ccccc3C[C@H]2O)cc1	–	58.3 to 92.3%	61.1%	78%	38.6%	88.7%	96%	–	–	Active
CO[C@H]1Cc2ccccc2[C@@H]1NC(=O)[C@H](Cc1ccccc1)C[C@H](O)CNS(=O)(=O)c1ccc2c(c1)OCCO2	6 µM	28.1%	–	–	–	–	–	–	–	–
CO[C@@H]1Cc2ccccc2[C@@H]1NC(=O)[C@H](Cc1ccccc1)C[C@H](O)CNS(=O)(=O)c1ccc(C(C)=O)cc1	5 µM	76.2%	–	–	–	–	–	–	–	–
Nc1ccc(S(=O)(=O)NC[C@@H](O)C[C@@H](Cc2ccccc2)C(=O)N[C@H]2c3ccccc3C[C@H]2O)cc1	–	-5.6 to 20%	18.6%	-5.5%	8.4%	6.7%	33.3%	–	–	–
O=C(NC[C@@H](O)C[C@@H](Cc1ccccc1)C(=O)N[C@H]1c2ccccc2C[C@H]1O)c1cccc([N+](=O)[O-])c1	–	4.75 to 19.9%	11%	7.4%	11.8%	-4%	13.5%	–	–	–
CC(=O)Nc1ccc(S(=O)(=O)NC[C@H](C[C@@H](Cc2ccccc2)C(=O)N[C@H]2c3ccccc3C[C@H]2OC(C)=O)OC(C)=O)cc1	–	0.5 to 1.95%	-8.7%	0.2%	-8.7%	9.7%	-5.8%	–	–	–
COc1ccc(S(=O)(=O)NC[C@@H](O)C[C@@H](Cc2ccccc2)C(=O)N[C@H]2c3ccccc3C[C@H]2O)cc1OC	–	10.5 to 30.1%	20.4%	23.2%	21.1%	32%	28.2%	–	–	–

Now from value to compound:

IC50 [1]	inhibition [2]	inhibition [3]	inhibition [4]	inhibition [5]	inhibition [6]	inhibition [7]	IC50 [8]	IC50 [9]	inhibition [10]	SMILES
–	2.6 to 84.5%	70.9 to 86.1%	-2.6 to 74.6%	38.7 to 74.3%	29.3 to 92%	97.8 to 100%	3.8 µM	2.3 µM	–	O=C(N[C@H]1c2ccccc2C[C@H]1O)[C@H](Cc1ccccc1)C[C@H](O)CNS(=O)(=O)c1ccc([N+](=O)[O-])cc1
1.13 to 45.8 µM	–	–	–	–	–	–	–	–	–	CCc1ccc(S(=O)(=O)NC[C@@H](O)C[C@@H](Cc2ccccc2)C(=O)N[C@H]2c3ccccc3C[C@H]2O)cc1
1800 µM	13.4 to 26.8%	0.6%	20.4%	-1.5%	20.7%	6.2%	–	–	–	CCCCNC(=O)[C@@H](Cc1ccccc1)C[C@H](O)CNS(=O)(=O)c1ccc([N+](=O)[O-])cc1
–	-5.4 to 0.7%	-6.1%	7.9%	-8.1%	5.7%	-4.3%	–	–	–	CCN(CC)C(=O)[C@H](Cc1ccccc1)C[C@H](O)CNS(=O)(=O)c1ccc([N+](=O)[O-])cc1
–	3.5 to 8.35%	12.6%	-9.8%	14.6%	7%	9.7%	–	–	–	NC(=O)[C@@H](Cc1ccccc1)C[C@H](O)CNS(=O)(=O)c1ccc([N+](=O)[O-])cc1
